Patent publication US3937829A, “Medicinal preparation for treatment of various forms of leprosy” (priority 1973, dated 1976)

Tests used:
storage stability = assay type: physicochemical
Description: The medicinal preparation according to the invention for treatment of various forms of leprosy is stable when under long-term storage.

Mycobacterium leprae = test: clinical experiments on 99 leprosy patients, therapeutic effect; assay type: in vivo, human
lymphocytes = test: intracellular metabolism, RNA quantity in a cell and phagocytosis; assay type: cell-based, human
[1] = human, in vivo
[2] = toxicity with respect to warm-blooded animals
[3] = tested on: lymphocytes of the human peripheral blood; test: influence upon the synthesis of RNA in lymphocytes; assay type: cell-based
Description: This may be considered as an evidence of possible differentiation of the lymphocytes or of potentiation of their specific function under the effect of the preparation.

[4] = solubility and reaction of aqueous solutions; assay type: physicochemical
Protocol: (§1) The preparation is soluble in diluted alkalis, dimethylformamide and dimethysulfoxide. Aqueous solutions of the preparation give an acid reaction. M.p. of the preparation lies at 233°-234°C, at temperatures above 235°C it decomposes; the preparation withstands heating at 150°C during 2 hours, at 100°C during 5 hours without decomposition.

[5] = concentration of sulfonic preparations in the blood during treatment; assay type: in vivo
Protocol: When determining the concentration of sulfonic preparations in the blood during treatment with diaminodiphenylsulfone, sulphetrone and the inventive preparations, it was observed that the concentration of the inventive preparation is twelve times as high as that of diaminodiphenylsulfone, both being administered as a powder at a dose of 0.1 g s.i.d. Futhermore, Injection of 2 ml of a 10 percent solution of the inventive preparation gave a concentration in the blood four times that which resulted from the introduction of 1 ml of 15-10 percent solution of sulphetrone.

[6] = thermal stability (heating); assay type: physicochemical
Protocol: as §1

[7] = clinico-biochemical data and blood findings in leprosy patients; assay type: in vivo, human
[8] = toxico-biological action during a three-month period (biochemical and histomorphological analyses); assay type: in vivo, white mice, rats and cats; conditions: compared to control animals
Description: Toxico-biological action of the preparation was studied in animals of the three species, viz., white mice, rats and cats. As a result, it was established that introduction of the medicinal preparation into an animal's organism during a three-month period provokes no changes, according to the data of biochemical and histomorphological analyses, in the internal organs, endocrine glands, brain, nerves and blood as compared to the control animals.

SMILES: Cc1[nH]c(=O)[nH]c(=O)c1S(=O)(=O)Nc1ccc(S(=O)(=O)c2ccc(NS(=O)(=O)c3c(C)[nH]c(=O)[nH]c3=O)cc2)cc1 [preparation, p,-p-bis(2,4-dioxy-6-methylpyrimidinyl-5-sulfonamido)diphenylsulfone]
- retention of properties on storage (storage stability; darkness, 18°-25°C, 5 years): retain the appearance, melting point, IR-spectrum data, solubility and pH value of an aqueous solution
- storage stability (storage stability; long-term storage): stable
- recurrence of the disease (Mycobacterium leprae; 36 patients dismissed for ambulant therapy, following four years): None of the 36 patients
- therapeutic effect in patients resistant to sulfonic antileprotic preparations (Mycobacterium leprae; all patients resistant to sulfonic antileprotic preparations): good therapeutic effect
- transformation of the lepromatous form into the tuberculoid form (Mycobacterium leprae; histological examinations during the course of treatment): 7 patients
- start of the regress of the disease (Mycobacterium leprae; human, in vivo): 3-6 weeks
- leprous reactions, neurites, inflammatory processes of the mucous membranes (Mycobacterium leprae; in the course of treatment): disappeared
- character of the regress of the disease (Mycobacterium leprae; infiltrates, lepromas, causative agent, fibrosis): resolution of infiltrates and lepromas, appearance of a great amount of granular forms of the causative agent and bacterial decomposition, as well as occurrence of a sharply marked fibrosis
- effect in patients resistant to sulfonic or other antileprotic therapy (Mycobacterium leprae; patients resistant to sulfonic or some other antileprotic therapy): effective
- intracellular metabolism (lymphocytes): promotes the processes of intracellular metabolism
- quantity of RNA in a cell (lymphocytes): enhances the quantity of RNA in a cell
- differentiation of lymphocytes and phagocytosis (lymphocytes; lepromatous form of leprosy): easier differentiation of the lymphocytes into phagocytic forms and to the completion of phagocytosis
- side effects [1]: none of the patients was found to suffer from any side effect
- LD50 ([2]; in vivo): 2600 mg/kg
- toxicity relative to diaminodiphenylsulfone ([2]; white mice, rats, cats, vs diaminodiphenylsulfone): one-fifth
- toxicity and effect on protective power, as concluded from RNA synthesis ([3]; increased immune response): non-toxic and acts as a stimulant of the protective power of the organisms
- synthesis of RNA in lymphocytes ([3]; lymphocytes of the human peripheral blood): promotes the synthesis of RNA
- solubility in aqueous novocain solution ([4]; 0.1-1-percent aqueous novocain solution): sparingly soluble
- reaction of aqueous solutions ([4]; aqueous solutions): acid reaction
- solubility in diluted alkalis ([4]; diluted alkalis): soluble
- solubility in dimethylformamide ([4]; dimethylformamide): soluble
- solubility in dimethysulfoxide ([4]; dimethysulfoxide): soluble
- solubility in ethyl alcohol ([4]; ethyl alcohol): insoluble
- solubility in physiological saline ([4]; physiological saline): sparingly soluble
- solubility in water ([4]; water): sparingly soluble
- solubility ([4]; water, solutions, read-out: concentration of the active principle above which the substance precipitates): > 120 mg/mL
- concentration in the blood relative to sulphetrone ([5]; 2 ml of 10 percent solution injected vs 1 ml of 15-10 percent solution of sulphetrone): four
- concentration in blood relative to diaminodiphenylsulfone ([5]; both as a powder, 0.1 g s.i.d.): twelve
- decomposition temperature [6]: above 235 °C
- withstands heating without decomposition ([6]; 100°C): 5 h
- withstands heating without decomposition ([6]; 150°C): 2 h
- anabolic effect ([7]; clinico-biochemical data): less manifested
- antipyretic effect ([7]; clinico-biochemical data): sharply pronounced
- amount of erythrocytes ([7]; in the course of treatment): increased amount of erythrocytes
- percentage of hemoglobin ([7]; in the course of treatment): higher percentage of hemoglobin
- protein metabolism ([7]; in the course of treatment): normalized protein metabolism
- changes in internal organs, endocrine glands, brain, nerves and blood [8]: no changes
